Where “and” joins values, the source holds several entries; their conditions need not be identical. Equal entries are not always repeated. Inconclusive results and toxic doses are left out.

Consider 18 molecules from PubChem BioAssay AID330 (DTP/NCI, 2004).

The experiment relates to P388 leukemia ip, CD2F1 mice, survival T/C. The experiment in a line: NCI In Vivo Anticancer Drug Screen. Data for tumor model P388 Leukemia (intraperitoneal) in CD2F1 (CDF1) mice. The settings on record: endpoint: median survival time, higher = longer survival. In short, it runs like this:
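Mice carrying the transplanted tumor received test compound or vehicle. Survival was recorded in each group, and the value is the treated-group measurement divided by that of the vehicle-treated control group.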

Setting [1] is: dose: 125.0 mg/kg/injection, schedule: Q01DX005 (ip), vehicle: Klucel (hydroxypropylcellulose) (HPC).
The mark [2] stands for this setting: dose: 250.0 mg/kg/injection, schedule: Q01DX005 (ip), vehicle: Klucel (hydroxypropylcellulose) (HPC).
[3] abbreviates: dose: 50.0 mg/kg/injection, schedule: Q01DX009 (ip), vehicle: saline with Tween-80.
Setting [4] is: dose: 100.0 mg/kg/injection, schedule: Q01DX009 (ip), vehicle: saline with Tween-80.
The mark [5] stands for this setting: dose: 200.0 mg/kg/injection, schedule: Q01DX009 (ip), vehicle: saline with Tween-80.
[6] abbreviates: dose: 50.0 mg/kg/injection, schedule: Q01DX009 (ip), vehicle: saline.
The mark [7] stands for this setting: dose: 100.0 mg/kg/injection, schedule: Q01DX009 (ip), vehicle: saline.
Setting [8] is: dose: 50.0 mg/kg/injection, schedule: Q01DX005 (ip), vehicle: Klucel (hydroxypropylcellulose) (HPC).
Where [9] appears, read: dose: 100.0 mg/kg/injection, schedule: Q01DX005 (ip), vehicle: Klucel (hydroxypropylcellulose) (HPC).

Take `O=c1[nH]c(=O)n(C2CC(O)C(CO)O2)cc1C(F)(F)F` (centres undefined): the T/C (dose: 20.0 mg/kg/injection, schedule: Q01DX009 (ip), vehicle: saline with Tween-80) is 111 % of control; the T/C (dose: 31.25 mg/kg/injection, schedule: Q01DX009 (ip), vehicle: Klucel (hydroxypropylcellulose) (HPC)) was 120 % of control; the T/C (dose: 40.0 mg/kg/injection, schedule: Q01DX009 (ip), vehicle: saline with Tween-80) is 117 % of control; the T/C (dose: 62.5 mg/kg/injection, schedule: Q01DX009 (ip), vehicle: Klucel (hydroxypropylcellulose) (HPC)) is 151 % of control; the T/C (dose: 80.0 mg/kg/injection, schedule: Q01DX009 (ip), vehicle: saline with Tween-80) is 119 % of control; the T/C under setting [1] is 152 % of control. Besides, the T/C was 178 % of control and 183 % of control (dose: 125.0 mg/kg/injection, schedule: Q01DX009 (ip), vehicle: Klucel (hydroxypropylcellulose) (HPC)); 111 % of control (dose: 160.0 mg/kg/injection, schedule: Q01DX009 (ip), vehicle: saline with Tween-80); 161 % of control under setting [2]; 176 % of control (dose: 250.0 mg/kg/injection, schedule: Q01DX009 (ip), vehicle: Klucel (hydroxypropylcellulose) (HPC)); 102 % of control (dose: 320.0 mg/kg/injection, schedule: Q01DX009 (ip), vehicle: saline with Tween-80); 151 % of control (dose: 500.0 mg/kg/injection, schedule: Q01DX005 (ip), vehicle: Klucel (hydroxypropylcellulose) (HPC)). Besides, the T/C runs as follows: (dose: 500.0 mg/kg/injection, schedule: Q01DX009 (ip), vehicle: Klucel (hydroxypropylcellulose) (HPC)) 100 % of control and 104 % of control; (dose: 640.0 mg/kg/injection, schedule: Q01DX009 (ip), vehicle: saline with Tween-80) 88 % of control.
For `COC1CCC(O)C(C(=O)CN(C)C)C1` (centres undefined), the T/C was 101 % of control (dose: 50.0 mg/kg/injection, schedule: Q01DX005 (ip), vehicle: saline); 99 % of control (dose: 100.0 mg/kg/injection, schedule: Q01DX005 (ip), vehicle: saline); 99 % of control (dose: 200.0 mg/kg/injection, schedule: Q01DX005 (ip), vehicle: saline).
For `NN1CC(=O)N(c2ccccc2)CC1=O`, the T/C is 100 % of control under setting [3], 94 % of control under setting [4] and 94 % of control under setting [5].
Regarding `Cc1ccc2c3c(c(O)c(C(C)(C)O)cc13)OC2=O`, the T/C is 91 % of control (dose: 15.63 mg/kg/injection, schedule: Q01DX005 (ip), vehicle: Klucel (hydroxypropylcellulose) (HPC)); 90 % of control (dose: 31.25 mg/kg/injection, schedule: Q01DX005 (ip), vehicle: Klucel (hydroxypropylcellulose) (HPC)); 93 % of control (dose: 62.5 mg/kg/injection, schedule: Q01DX005 (ip), vehicle: Klucel (hydroxypropylcellulose) (HPC)); 93 % of control under setting [1]; 93 % of control under setting [2].
Consider `C=C/[Se](=C(/C#N)C(=O)c1ccccc1)c1ccccc1` (centres undefined), for which the T/C was 99 % of control (dose: 6.25 mg/kg/injection, schedule: Q01DX009 (ip), vehicle: saline); 99 % of control (dose: 12.5 mg/kg/injection, schedule: Q01DX009 (ip), vehicle: saline); 89 % of control (dose: 25.0 mg/kg/injection, schedule: Q01DX009 (ip), vehicle: saline).
`Cc1nnc2c3nccn3ccn12`: the T/C is 106 % of control (dose: 12.5 mg/kg/injection, schedule: Q01DX001 (ip), vehicle: saline with Tween-80); 101 % of control (dose: 25.0 mg/kg/injection, schedule: Q01DX001 (ip), vehicle: saline with Tween-80); 106 % of control (dose: 50.0 mg/kg/injection, schedule: Q01DX001 (ip), vehicle: saline with Tween-80).
In the case of `CCNCc1c(C)[nH]c2ccc(N(C)C)cc2c1=O`, the T/C was 92 % of control under setting [6] and 108 % of control under setting [7].
As to `c1ccc(Cc2[nH]nc(-c3n[nH]c(Cc4ccccc4)c3-c3ccccc3)c2-c2ccccc2)cc1`, the T/C was 101 % of control (dose: 60.0 mg/kg/injection, schedule: Q01DX005 (ip), vehicle: saline with Tween-80); 103 % of control (dose: 120.0 mg/kg/injection, schedule: Q01DX005 (ip), vehicle: saline with Tween-80); 102 % of control (dose: 240.0 mg/kg/injection, schedule: Q01DX005 (ip), vehicle: saline with Tween-80).
On to `O=C(O)c1cc2ccccc2[nH]c1=O`, for which the T/C was 97 % of control under setting [8]; 97 % of control under setting [9]; 104 % of control (dose: 200.0 mg/kg/injection, schedule: Q01DX005 (ip), vehicle: Klucel (hydroxypropylcellulose) (HPC)).
On to `CC1CN(C(=O)c2ccccc2)CC/C1=N\O` (centres undefined), for which the T/C by setting is: (dose: 50.0 mg/kg/injection, schedule: Q01DX005 (ip), vehicle: saline with Tween-80) 97 % of control; (dose: 100.0 mg/kg/injection, schedule: Q01DX005 (ip), vehicle: saline with Tween-80) 93 % of control; (dose: 200.0 mg/kg/injection, schedule: Q01DX005 (ip), vehicle: saline with Tween-80) 101 % of control.
Consider `O=c1cccc2c1c1cc[nH]c3ccc(=O)n2c31`, for which the T/C by setting is: (dose: 1.25 mg/kg/injection, schedule: Q01DX009 (ip), vehicle: saline with Tween-80) 98 % of control; (dose: 2.5 mg/kg/injection, schedule: Q01DX009 (ip), vehicle: saline with Tween-80) 107 % of control; (dose: 5.0 mg/kg/injection, schedule: Q01DX009 (ip), vehicle: saline with Tween-80) 102 % of control.
Turning to `CC1(C)O[C@H]2CC(=O)OC[C@@]23[C@H]1CC(=O)[C@@]1(C)C2=CCC(c4ccoc4)[C@]2(C)CC[C@@H]13` (some centres undefined), the T/C is, setting by setting: (dose: 3.12 mg/kg/injection, schedule: Q01DX005 (ip), vehicle: distilled water + Tween-80) 95 % of control; (dose: 6.25 mg/kg/injection, schedule: Q01DX005 (ip), vehicle: distilled water + Tween-80) 99 % of control; (dose: 12.5 mg/kg/injection, schedule: Q01DX005 (ip), vehicle: distilled water + Tween-80) 102 % of control; (dose: 25.0 mg/kg/injection, schedule: Q01DX005 (ip), vehicle: distilled water + Tween-80) 116 % of control; (dose: 50.0 mg/kg/injection, schedule: Q01DX005 (ip), vehicle: distilled water + Tween-80) 92 % of control.
Consider `CCOP(=O)(CC1OCCCO1)OCC`, for which the T/C runs as follows: under setting [6], 98 % of control; under setting [7], 100 % of control; (dose: 200.0 mg/kg/injection, schedule: Q01DX009 (ip), vehicle: saline) 102 % of control.
For the molecule `O=C1c2ccccc2C(=O)c2c(NCC3CO3)ccc(NCC3CO3)c21` (centres undefined), the T/C is, setting by setting: (dose: 0.75 mg/kg/injection, schedule: Q01DX005 (ip), vehicle: Klucel (hydroxypropylcellulose) (HPC)) 112 % of control; (dose: 1.5 mg/kg/injection, schedule: Q01DX005 (ip), vehicle: Klucel (hydroxypropylcellulose) (HPC)) 112 % of control; (dose: 3.0 mg/kg/injection, schedule: Q01DX005 (ip), vehicle: Klucel (hydroxypropylcellulose) (HPC)) 114 % of control; (dose: 6.0 mg/kg/injection, schedule: Q01DX005 (ip), vehicle: Klucel (hydroxypropylcellulose) (HPC)) 114 % of control.
On to `Nc1nc(N)c2nc(Sc3ccc(F)cc3)c(N)nc2n1`, for which the T/C (dose: 25.0 mg/kg/injection, schedule: Q01DX005 (ip), vehicle: Klucel (hydroxypropylcellulose) (HPC)) was 97 % of control; the T/C under setting [8] is 94 % of control; the T/C under setting [9] is 88 % of control.
`COc1cc(OC2OC(CO)C(O)C(O)C2O)ccc1/C=C\C(=O)c1ccc(O)cc1` (centres undefined): the T/C was 96 % of control (dose: 100.0 mg/kg/injection, schedule: Q04DX002 (ip), vehicle: saline with Tween-80); 90 % of control (dose: 200.0 mg/kg/injection, schedule: Q04DX002 (ip), vehicle: saline with Tween-80); 91 % of control (dose: 400.0 mg/kg/injection, schedule: Q04DX002 (ip), vehicle: saline with Tween-80).
For `Cc1ccc(S(=O)(=O)OCCC(C)(C)C)cc1`, the T/C is 106 % of control under setting [3], 107 % of control under setting [4] and 111 % of control under setting [5].
In the case of `O=C1CCS(=O)(=O)C(=O)N1c1ccccc1`, the T/C was 100 % of control (dose: 50.0 mg/kg/injection, schedule: Q01DX009 (ip), vehicle: Klucel (hydroxypropylcellulose) (HPC)); 97 % of control (dose: 100.0 mg/kg/injection, schedule: Q01DX009 (ip), vehicle: Klucel (hydroxypropylcellulose) (HPC)); 87 % of control (dose: 200.0 mg/kg/injection, schedule: Q01DX009 (ip), vehicle: Klucel (hydroxypropylcellulose) (HPC)).
